Measurements reported in ChEMBL document CHEMBL5316291 (J Med Chem, 2023).

Legend:
[1] = Apparent volume of distribution in ICR mouse at 10 mg/kg, po measured upto 24 hrs by LC-MS/MS analysis; format: ADME, organism-based; details: in vivo
CT26 [2] = assay: Antitumor activity against mouse CT26 cells xenografted in BALB/c mouse assessed as tumor growth inhibition at 25 mg/kg, po bid measured for 14 days; format: functional; details: CT26, 336 h, time 14 day, read-out: TGI
CT26 [3] = assay: Antitumor activity against mouse CT26 cells implanted in po dosed BALB/c mouse assessed as increase in CXCL10 levels measured after 14 days by RT-qPCR analysis; format: functional, organism-based; details: dose 25-100 mg/kg, time 14.0 day
CT26 [4] = assay: Antitumor activity against mouse CT26 cells xenografted in BALB/c mouse assessed as tumor growth inhibition at 50 mg/kg, po bid measured for 14 days; format: functional; details: CT26, 336 h, time 14 day, read-out: TGI
[5] = biological target: T1, Protein mono-ADP-ribosyltransferase PARP11 (Homo sapiens, UniProt Q9NR21); assay: Inhibition of human recombinant N-terminal GST-tagged / C-terminal His-tagged PARP11 (8 to 338 end residues) expressed in baculovirus infected Sf9 cells expression system incubated for 1 hr by ELISA assay
T1 sequence (Q9NR21 whole entry): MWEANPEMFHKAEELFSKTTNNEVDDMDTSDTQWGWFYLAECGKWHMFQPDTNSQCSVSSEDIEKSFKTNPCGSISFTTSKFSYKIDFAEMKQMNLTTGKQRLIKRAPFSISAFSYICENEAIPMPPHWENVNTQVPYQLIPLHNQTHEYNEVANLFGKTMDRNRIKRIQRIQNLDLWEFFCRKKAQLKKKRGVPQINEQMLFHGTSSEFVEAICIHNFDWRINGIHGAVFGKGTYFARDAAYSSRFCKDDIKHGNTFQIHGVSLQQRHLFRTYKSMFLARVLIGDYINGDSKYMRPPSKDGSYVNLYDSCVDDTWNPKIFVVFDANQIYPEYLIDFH

[6] = Tmax in ICR mouse at 10 mg/kg, po measured upto 24 hrs by LC-MS/MS analysis; format: ADME, organism-based; details: in vivo
[7] = Toxicity in BALB/c mouse implanted with mouse CT26 cells assessed as lung damage at 100 mg/kg, po measured for 14 days by hematoxylin and eosin staining based fluorescence microscopic analysis; format: organism-based; details: in vivo, 336 h, time 14 day
[8] = Initial plasma concentration in ICR mouse at 1 mg/kg, iv measured upto 24 hrs by LC-MS/MS analysis; format: ADME, organism-based

**Q.** Which Vz [1] does the source give for `C[C@@H](CN1CC(C(=O)N2CCN(c3ncc(C(F)(F)F)cn3)CC2)C1)Nc1cn[nH]c(=O)c1C(F)(F)F` here?
**A.** 4.5836 L/kg

**Q.** And the inhibition in vivo at 25 mg/kg (CT26 [2])?
**A.** 39%

**Q.** What about the Activity (CT26 [3]) of the same compound?
**A.** Dose-Dependent Effect

**Q.** What about the inhibition in vivo at 50 mg/kg (CT26 [4]) of the same compound?
**A.** 46%

**Q.** And the IC50 [5]?
**A.** 32.2 µM

**Q.** What about the Tmax [6] of the same compound?
**A.** 34.8 min

**Q.** And the Activity [7]?
**A.** Non-Toxic

**Q.** And the C0 at 24 h [8]?
**A.** 504 ng/mL
